# Key:
# symptoms of BPH [1] = assay: Study A: 4 mg Silodosin Twice Daily (KMD-202), Japanese Phase 2 Study; type: in vivo, human; conditions: 4 mg twice daily
# From the text: Patients were males who were at least 50 years of age and who had at least two of the following three variables classified as moderate, or at least one variable classified as severe: IPSS/AUASS, Qmax and QoL. In addition, the results for IPSS/AUASS for studies A, B, D and E are illustrated in FIGS. 3 to 6, respectively, and the results for Qmax for studies A, B, D and E are illustrated in FIGS. 7 to 10, respectively.
# symptoms of BPH [2] = assay: Study C: 4 mg or 8 mg Silodosin Once Daily (KMD-3213-US021-99), U.S. Phase 2 Study; type: in vivo, human
# Description: The 6-week stable dosing period was preceded by a 4-week placebo lead-in and a 2-week titration period. […] Male patients were selected who were at least 45 years of age with signs and symptoms of BPH (AUASS of 13 and maximum urine flow rate between 4 and 15 mL/sec). In addition, the results for IPSS/AUASS for studies A, B, D and E are illustrated in FIGS. 3 to 6, respectively, and the results for Qmax for studies A, B, D and E are illustrated in FIGS. 7 to 10, respectively.
# [3] = 4 mg once daily, Visit 3 (Day 29), Post-dose (2-6 hr), LOCF
# [4] = 4 mg once daily, Visit 4 (Day 36), LOCF
# [5] = 4 mg once daily, Visit 4 (Day 36), Post-dose (2-6 hr), LOCF
# [6] = 4 mg once daily, Visit 5 (Day 43), LOCF
# [7] = 4 mg once daily, Visit 5 (Day 43), Post-dose (2-6 hr), LOCF
# [8] = 4 mg once daily, Visit 6 (Day 64), LOCF
# [9] = 4 mg once daily, Visit 6 (Day 64), Post-dose (2-6 hr), LOCF
# [10] = 4 mg once daily, Visit 7 (EOS, Day 84), LOCF
# [11] = 4 mg once daily, Visit 7 (EOS, Day 84), Post-dose (2-6 hr), LOCF
# [12] = 8 mg once daily, Visit 3 (Day 29), Post-dose (2-6 hr), LOCF
# [13] = 8 mg once daily, Visit 4 (Day 36), LOCF
# [14] = 8 mg once daily, Visit 4 (Day 36), Post-dose (2-6 hr), LOCF
# [15] = 8 mg once daily, Visit 5 (Day 43), LOCF
# [16] = 8 mg once daily, Visit 5 (Day 43), Post-dose (2-6 hr), LOCF
# [17] = 8 mg once daily, Visit 6 (Day 64), LOCF
# [18] = 8 mg once daily, Visit 6 (Day 64), Post-dose (2-6 hr), LOCF
# [19] = 8 mg once daily, Visit 7 (EOS, Day 84), LOCF
# [20] = 8 mg once daily, Visit 7 (EOS, Day 84), Post-dose (2-6 hr), LOCF
# [21] = Study C, 4 mg once daily, Week 0
compound,measurement,setting,value
C[C@H](Cc1cc2c(c(C(N)=O)c1)N(CCCO)CC2)NCCOc1ccccc1OCC(F)(F)F [Silodosin],Incidence of Adverse Events: Dizziness,symptoms of BPH [1],2.2 % of patients
same,Incidence of Adverse Events: Orthostatic Hypotension,symptoms of BPH [1],1.1 % of patients
same,Incidence of Adverse Events: Syncope,symptoms of BPH [1],0 % of patients
same,IPSS/AUASS baseline value,symptoms of BPH [1]; Week 0,18.7
same,Maximum Flow Rate baseline value,symptoms of BPH [1]; Week 0,10.70 mL/s
same,Mean Change From Baseline (CFB) in IPSS/AUASS,symptoms of BPH [1]; Week 2,−5.6
same,Mean Change From Baseline (CFB) in IPSS/AUASS,symptoms of BPH [1]; Week 4,−6.6
same,Mean Change From Baseline (CFB) in Maximum Flow Rate,symptoms of BPH [1]; Week 4,1.31 mL/s
same,"Q-max, Mean (SD)",symptoms of BPH [2]; [3],12.2 (4.4) ml/sec
same,"Q-max, Mean change (SD)",symptoms of BPH [2]; [3],2.5 (3.6) ml/sec
same,"Q-max, Mean (SD)","symptoms of BPH [2]; 4 mg once daily, Visit 3 (baseline, Day 29), Pre-dose, LOCF",9.7 (3.0) ml/sec
same,"Total IPSS/AUASS Score, Mean (SD)","symptoms of BPH [2]; 4 mg once daily, Visit 3 (baseline, Day 29), modified intent to treat (LOCF)",19.7 (5.1)
same,"Total IPSS/AUASS Score, Mean (SD)",symptoms of BPH [2]; [4],17.3 (5.6)
same,"Total IPSS/AUASS Score, Mean change (SD)",symptoms of BPH [2]; [4],−2.4 (4.0)
same,"Q-max, Mean (SD)",symptoms of BPH [2]; [5],12.4 (4.7) ml/sec
same,"Q-max, Mean change (SD)",symptoms of BPH [2]; [5],2.7 (4.4) ml/sec
same,"Total IPSS/AUASS Score, Mean (SD)",symptoms of BPH [2]; [6],15.5 (5.6)
same,"Total IPSS/AUASS Score, Mean change (SD)",symptoms of BPH [2]; [6],−4.2 (4.5)
same,"Q-max, Mean (SD)",symptoms of BPH [2]; [7],12.2 (4.7) ml/sec
same,"Q-max, Mean change (SD)",symptoms of BPH [2]; [7],2.6 (4.2) ml/sec
same,"Total IPSS/AUASS Score, Mean (SD)",symptoms of BPH [2]; [8],14.6 (6.0)
same,"Total IPSS/AUASS Score, Mean change (SD)",symptoms of BPH [2]; [8],−5.1 (5.1)
same,"Q-max, Mean (SD)",symptoms of BPH [2]; [9],12.0 (4.3) ml/sec
same,"Q-max, Mean change (SD)",symptoms of BPH [2]; [9],2.3 (4.1) ml/sec
same,"Total IPSS/AUASS Score, Mean (SD)",symptoms of BPH [2]; [10],13.9 (6.0)
same,"Total IPSS/AUASS Score, Mean change (SD)",symptoms of BPH [2]; [10],−5.7 (5.5)
same,"Q-max, Mean (SD)",symptoms of BPH [2]; [11],12.6 (4.4) ml/sec
same,"Q-max, Mean change (SD)",symptoms of BPH [2]; [11],2.9 (4.0) ml/sec
same,"Q-max, Mean (SD)",symptoms of BPH [2]; [12],11.7 (3.5) ml/sec
same,"Q-max, Mean change (SD)",symptoms of BPH [2]; [12],2.0 (3.1) ml/sec
same,"Q-max, Mean (SD)","symptoms of BPH [2]; 8 mg once daily, Visit 3 (baseline, Day 29), Pre-dose, LOCF",9.6 (2.7) ml/sec
same,"Total IPSS/AUASS Score, Mean (SD)","symptoms of BPH [2]; 8 mg once daily, Visit 3 (baseline, Day 29), modified intent to treat (LOCF)",20.8 (5.3)
same,"Total IPSS/AUASS Score, Mean (SD)",symptoms of BPH [2]; [13],18.0 (6.0)
same,"Total IPSS/AUASS Score, Mean change (SD)",symptoms of BPH [2]; [13],−2.7 (3.7)
same,"Q-max, Mean (SD)",symptoms of BPH [2]; [14],12.5 (4.8) ml/sec
same,"Q-max, Mean change (SD)",symptoms of BPH [2]; [14],2.9 (4.4) ml/sec
same,"Total IPSS/AUASS Score, Mean (SD)",symptoms of BPH [2]; [15],16.5 (6.0)
same,"Total IPSS/AUASS Score, Mean change (SD)",symptoms of BPH [2]; [15],−4.3 (3.9)
same,"Q-max, Mean (SD)",symptoms of BPH [2]; [16],12.5 (5.7) ml/sec
same,"Q-max, Mean change (SD)",symptoms of BPH [2]; [16],2.9 (5.4) ml/sec
same,"Total IPSS/AUASS Score, Mean (SD)",symptoms of BPH [2]; [17],15.9 (6.4)
same,"Total IPSS/AUASS Score, Mean change (SD)",symptoms of BPH [2]; [17],−4.9 (4.6)
same,"Q-max, Mean (SD)",symptoms of BPH [2]; [18],12.9 (5.6) ml/sec
same,"Q-max, Mean change (SD)",symptoms of BPH [2]; [18],3.2 (5.5) ml/sec
same,"Total IPSS/AUASS Score, Mean (SD)",symptoms of BPH [2]; [19],14.0 (6.5)
same,"Total IPSS/AUASS Score, Mean change (SD)",symptoms of BPH [2]; [19],−6.8 (5.8)
same,"Q-max, Mean (SD)",symptoms of BPH [2]; [20],13.0 (5.8) ml/sec
same,"Q-max, Mean change (SD)",symptoms of BPH [2]; [20],3.5 (5.7) ml/sec
same,Incidence of Adverse Events: Dizziness,"symptoms of BPH [2]; Study C, 4 mg once daily",9.1 % of patients
same,Incidence of Adverse Events: Orthostatic Hypotension,"symptoms of BPH [2]; Study C, 4 mg once daily",4.5 % of patients
same,Incidence of Adverse Events: Syncope,"symptoms of BPH [2]; Study C, 4 mg once daily",0 % of patients
same,Mean Change From Baseline (CFB) in Maximum Flow Rate,"symptoms of BPH [2]; Study C, 4 mg once daily, 2-6 hrs after 1st dose",2.5 mL/s
same,IPSS/AUASS baseline value,symptoms of BPH [2]; [21],19.7
same,Maximum Flow Rate baseline value,symptoms of BPH [2]; [21],9.7 mL/s

# Reference: patent publication US20110319464A1, “METHODS FOR TREATING BENIGN PROSTATIC HYPERPLASIA” (KISSEI PHARMACEUTICAL CO., LTD., priority 2007, published 2011)
